The source of these data is US20210144998A1 (priority 2019, published 2021).

Counter-ions that a name gives are not always drawn. Like-named read-outs stand apart in the source and are kept apart here.

For one experiment, the system named is VisNR. The following applies: Microsource.

As for `O=c1[nH]cc(F)c(=O)[nH]1` [5-Fluorouracil], the “activity annotation LdtR” value in the experiment with LdtR (LOPAC) was 5-Fluorouracil (2; inactive LdtR LOPAC).
As for `CC[C@H]1OC(=O)[C@H](C)[C@@H](O[C@H]2C[C@@](C)(OC)[C@@H](O)[C@H](C)O2)[C@H](C)[C@@H](O[C@@H]2O[C@H](C)C[C@H](N(C)C)[C@H]2O)[C@](C)(OC)C[C@@H](C)C(=O)[C@H](C)[C@@H](O)[C@]1(C)O` [CLARITHROMYCIN], the “activity annotation LdtR” value in the experiment on LdtR (NIHCC) is “CLARITHROMYCIN (2; inactive LdtR & RpoH NIHCC)”. In the experiment on RpoH (NIHCC), the “activity annotation RpoH” value was “CLARITHROMYCIN (2; inactive LdtR & RpoH NIHCC)”.
Take `O=C(O)CN(CCN(CC(=O)O)CC(=O)O)CCN(CC(=O)O)CC(=O)O` [Diethylenetriaminepentaacetic acid]: under “LOPAC”, the “activity annotation, target not given” value was “Diethylenetriaminepentaacetic acid (1; inactive LOPAC)”.
With `CC(=O)NC[C@H]1CN(c2ccc(N3CCOCC3)c(F)c2)C(=O)O1` [LINEZOLIDE], under “NIHCC”, the “activity annotation, target not given” value was “LINEZOLIDE (1; inactive NIHCC)”.
Regarding `CCn1cc(C(=O)O)c(=O)c2cc(F)c(N3CCNC(C)C3)c(F)c21.Cl` (stereo not shown) [Lomefloxacin hydrochloride], the “activity annotation VisNR” value with VisNR is “Lomefloxacin hydrochloride (2; inactive LOPAC & VisNR Microsource)”.
For `CCn1cc(C(=O)O)c(=O)c2cc(F)c(N3CCN(C)CC3)cc21.CS(=O)(=O)O` [PEFLOXACIN MESYLATE], the “activity annotation, target not given” value (NIHCC) was “PEFLOXACIN MESYLATE (2; inactive NIHCC)”.
Turning to `CN1CCN(c2c(F)cc3c(=O)c(C(=O)O)cn4c3c2SCC4)CC1` [RUFLOXACIN HCl], the “activity annotation LdtR” value with LdtR (NIHCC) is “RUFLOXACIN HCl (2; inactive LdtR & RpoH NIHCC)”. Moreover, in the experiment on RpoH (NIHCC), the “activity annotation RpoH” value is “RUFLOXACIN HCl (2; inactive LdtR & RpoH NIHCC)”.
On to `NC(=O)c1ncn([C@@H]2O[C@H](CO)[C@@H](O)[C@H]2O)n1` [Ribavirin], for which the “activity annotation RpoH” value in the experiment on RpoH (Biomol FDA) was “Ribavirin (2; inactive RpoH Biomol FDA)”.
